Positions of bridges follow the written chain, without caps; N, C: chain ends. Non-standard residues stand in square brackets, D forms with d. Residues, ends and D or L forms follow the SMILES beside them. cisHyp = O=C(O)[C@@H]1C[C@H](O)CN1; Hyp = O=C(O)[C@@H]1C[C@@H](O)CN1; NMeNle = CCCC[C@H](NC)C(=O)O; NMeA = CN[C@@H](C)C(=O)O; Orn = NCCC[C@H](N)C(=O)O; Dab = NCC[C@H](N)C(=O)O; Dap = NC[C@H](N)C(=O)O
Legend:
Human PD-L1/PD-1 = biological target: T1, Human PD-L1/PD-1 (Homo sapiens, UniProt Q9NZQ7); assay: HTRF PD-1-Ig/PD-L1-His binding assay (human PD-L1); settings: cluster symbol; read-out: HTRF IC50 cluster
T1 construct: made in house; host or cells: HEK293T
T1 sequence (Q9NZQ7 with tags, fused parts or gaps): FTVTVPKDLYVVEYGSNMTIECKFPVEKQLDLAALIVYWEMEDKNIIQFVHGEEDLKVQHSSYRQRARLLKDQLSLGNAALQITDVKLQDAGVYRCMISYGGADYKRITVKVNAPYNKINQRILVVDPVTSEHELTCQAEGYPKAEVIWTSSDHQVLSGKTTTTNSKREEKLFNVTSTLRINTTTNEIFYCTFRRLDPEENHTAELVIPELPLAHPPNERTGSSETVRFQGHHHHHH
In short: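 Ig- and His-fused extracellular PD-1/PD-L1 binding in BSA/Tween-20 dPBS. HTRF with Eu anti-Ig (1 nM final) and APC anti-His (20 nM final).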

[1] = biological target: T2, LK35.2-hPD-L1 cells / PE-labeled PD-1-Ig (Homo sapiens, UniProt Q9NZQ7); assay: LK35.2-hPD-L1 cell binding high-content screening assay; assay type: cell-based; settings: cluster symbol; cell line of CBA not given (LK35.2-hPD-L1 or 293T-hPD-L1); read-out: CBA IC50 cluster
T2 construct: expressed in transfected cells; host or cells: LK35.2 mouse B cell line
T2 sequence (Q9NZQ7 19-290): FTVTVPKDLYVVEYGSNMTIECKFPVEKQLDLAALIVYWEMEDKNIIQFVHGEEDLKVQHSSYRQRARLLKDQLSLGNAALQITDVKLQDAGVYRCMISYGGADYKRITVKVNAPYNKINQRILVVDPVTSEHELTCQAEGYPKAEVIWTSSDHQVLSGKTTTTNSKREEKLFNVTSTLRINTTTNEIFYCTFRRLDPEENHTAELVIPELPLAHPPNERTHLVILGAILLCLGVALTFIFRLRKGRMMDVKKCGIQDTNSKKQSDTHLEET
In short: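 Binding of PE-conjugated human PD-1-Ig (1 nM final) to human PD-L1 stably expressed on a mouse B-cell line (LK35.2) was measured by high-content imaging after washes. Compound and labeled PD-1-Ig were co-incubated 1 h at 37 °C with cells in RPMI/10% FCS.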

| IC50 (Human PD-L1/PD-1) [nM] | IC50 [1] [nM] | SMILES |
| --- | --- | --- |
| 6.76 to 30.3 | > 74.3 | CCCC[C@H]1C(=O)N(C)[C@@H](CCCC)C(=O)N[C@@H](CCCNC(=N)N)C(=O)N[C@H](C(=O)NCC(N)=O)CSCC(=O)N[C@@H](Cc2ccc(O)cc2)C(=O)N(C)[C@@H](C)C(=O)N[C@@H](CCCN)C(=O)N2CCC[C@H]2C(=O)N[C@@H](C)C(=O)N[C@@H](CC(C)C)C(=O)N2C[C@@H](O)C[C@H]2C(=O)N[C@@H](Cc2c[nH]c3ccccc23)C(=O)N[C@@H](CO)C(=O)N[C@@H](Cc2c[nH]c3ccccc23)C(=O)N1C [Example 1146] ({CH2CO}-Y[NMeA][Orn]PAL[cisHyp]WSW[NMeNle][NMeNle]RCG-NH2; thioether N-14) |
| 6.76 to 30.3 | 4.78 to 72.9 | CCCC[C@H]1C(=O)N(C)[C@@H](CCCC)C(=O)N[C@@H](CCCNC(=N)N)C(=O)N[C@H](C(=O)NCC(N)=O)CSCC(=O)N[C@@H](Cc2ccc(O)cc2)C(=O)N(C)[C@@H](C)C(=O)N[C@@H](CCCN)C(=O)N2CCC[C@H]2C(=O)N[C@@H](C)C(=O)N[C@@H](CCC(=O)O)C(=O)N2C[C@@H](O)C[C@H]2C(=O)N[C@@H](Cc2c[nH]c3ccccc23)C(=O)N[C@@H](CO)C(=O)N[C@@H](Cc2c[nH]c3ccccc23)C(=O)N1C [Example 1147] ({CH2CO}-Y[NMeA][Orn]PAE[cisHyp]WSW[NMeNle][NMeNle]RCG-NH2; thioether N-14) |
| 6.76 to 30.3 | 4.78 to 72.9 | CCCC[C@H]1C(=O)N(C)[C@@H](CCCC)C(=O)N[C@@H](CCCNC(=N)N)C(=O)N[C@H](C(=O)NCC(N)=O)CSCC(=O)N[C@@H](Cc2ccc(O)cc2)C(=O)N(C)[C@@H](C)C(=O)N[C@@H](CCN)C(=O)N2CCC[C@H]2C(=O)N[C@@H](C)C(=O)N[C@@H](CCC(=O)O)C(=O)N2C[C@H](O)C[C@H]2C(=O)N[C@@H](Cc2c[nH]c3ccccc23)C(=O)N[C@@H](CO)C(=O)N[C@@H](Cc2c[nH]c3ccccc23)C(=O)N1C [Example 1155] ({CH2CO}-Y[NMeA][Dab]PAE[Hyp]WSW[NMeNle][NMeNle]RCG-NH2; thioether N-14) |
| 6.76 to 30.3 | 0.158 to 4.71 | CCCC[C@H]1C(=O)N(C)[C@@H](CCCC)C(=O)N[C@@H](CCCN)C(=O)N[C@H](C(=O)NCC(N)=O)CSCC(=O)N[C@@H](Cc2ccc(O)cc2)C(=O)N(C)[C@@H](C)C(=O)N[C@@H](CC(N)=O)C(=O)N2CCC[C@H]2C(=O)N[C@@H](Cc2c[nH]cn2)C(=O)N[C@@H](CC(C)C)C(=O)N2C[C@H](O)C[C@H]2C(=O)N[C@@H](Cc2c[nH]c3ccccc23)C(=O)N[C@@H](CCN)C(=O)N[C@@H](Cc2c[nH]c3ccccc23)C(=O)N1C [Example 1157] ({CH2CO}-Y[NMeA]NPHL[Hyp]W[Dab]W[NMeNle][NMeNle][Orn]CG-NH2; thioether N-14) |

More lines, now with the values behind:

| SMILES | IC50 (Human PD-L1/PD-1) [nM] | IC50 [1] [nM] |
| --- | --- | --- |
| CCCC[C@H]1C(=O)N(C)[C@@H](CCCC)C(=O)N[C@@H](CCCNC(=N)N)C(=O)N[C@H](C(=O)NCC(N)=O)CSCC(=O)N[C@@H](Cc2ccc(O)cc2)C(=O)N2CCC[C@H]2C(=O)N[C@@H](CC(N)=O)C(=O)N2CCC[C@H]2C(=O)N[C@@H](Cc2cnc[nH]2)C(=O)N[C@@H](CC(C)C)C(=O)N2C[C@@H](O)C[C@H]2C(=O)N[C@@H](Cc2c[nH]c3ccccc23)C(=O)N[C@@H](CO)C(=O)N[C@@H](Cc2c[nH]c3ccccc23)C(=O)N1C [Example 1148] ({CH2CO}-YPNPHL[cisHyp]WSW[NMeNle][NMeNle]RCG-NH2; thioether N-14) | 6.76 to 30.3 | 4.78 to 72.9 |
| CCCC[C@H]1C(=O)N(C)[C@@H](CCCC)C(=O)N[C@@H](CCCN)C(=O)N[C@H](C(=O)NCC(N)=O)CSCC(=O)N[C@@H](Cc2ccc(O)cc2)C(=O)N2CCC[C@H]2C(=O)N[C@@H](CC(=O)O)C(=O)N2CCC[C@H]2C(=O)N[C@@H](CN)C(=O)N[C@@H](CC(C)C)C(=O)N2C[C@@H](O)C[C@H]2C(=O)N[C@@H](Cc2c[nH]c3ccccc23)C(=O)N[C@@H](CO)C(=O)N[C@@H](Cc2c[nH]c3ccccc23)C(=O)N1C [Example 1149] ({CH2CO}-YPDP[Dap]L[cisHyp]WSW[NMeNle][NMeNle][Orn]CG-NH2; thioether N-14) | 6.76 to 30.3 | 4.78 to 72.9 |
| CCCC[C@H]1C(=O)N(C)[C@@H](CCCC)C(=O)N[C@@H](C)C(=O)N[C@H](C(=O)NCC(N)=O)CSCC(=O)N[C@@H](Cc2ccc(O)cc2)C(=O)N2CCC[C@H]2C(=O)N[C@@H](CC(=O)O)C(=O)N2CCC[C@H]2C(=O)N[C@@H](CN)C(=O)N[C@@H](CC(C)C)C(=O)N2C[C@@H](O)C[C@H]2C(=O)N[C@@H](Cc2c[nH]c3ccccc23)C(=O)N[C@@H](CCN)C(=O)N[C@@H](Cc2c[nH]c3ccccc23)C(=O)N1C [Example 1150] ({CH2CO}-YPDP[Dap]L[cisHyp]W[Dab]W[NMeNle][NMeNle]ACG-NH2; thioether N-14) | 0.385 to 6.74 | 0.158 to 4.71 |
| CCCC[C@H]1C(=O)N(C)[C@@H](CCCC)C(=O)N[C@@H](C)C(=O)N[C@H](C(=O)NCC(N)=O)CSCC(=O)N[C@@H](Cc2ccc(O)cc2)C(=O)N2CCC[C@H]2C(=O)N[C@@H](CC(=O)O)C(=O)N2CCC[C@H]2C(=O)N[C@@H](CN)C(=O)N[C@@H](CC(C)C)C(=O)N2C[C@H](O)C[C@H]2C(=O)N[C@@H](Cc2c[nH]c3ccccc23)C(=O)N[C@@H](CO)C(=O)N[C@@H](Cc2c[nH]c3ccccc23)C(=O)N1C [Example 1152] ({CH2CO}-YPDP[Dap]L[Hyp]WSW[NMeNle][NMeNle]ACG-NH2; thioether N-14) | 6.76 to 30.3 | 4.78 to 72.9 |
| CCCC[C@H]1C(=O)N(C)[C@@H](CCCC)C(=O)N[C@@H](C)C(=O)N[C@H](C(=O)NCC(=O)O)CSCC(=O)N[C@@H](Cc2ccc(O)cc2)C(=O)N(C)[C@@H](C)C(=O)N[C@@H](CC(N)=O)C(=O)N2CCC[C@H]2C(=O)N[C@@H](Cc2cnc[nH]2)C(=O)N[C@@H](CC(C)C)C(=O)N[C@@H](CCCN)C(=O)N[C@@H](Cc2c[nH]c3ccccc23)C(=O)N[C@@H](CO)C(=O)N[C@@H](Cc2csc3ccccc23)C(=O)N1C [Example 1153] | > 30.5 | 4.78 to 72.9 |
| CCCC[C@H]1C(=O)N(C)[C@@H](CCCC)C(=O)N[C@@H](C)C(=O)N[C@H](C(=O)NCC(=O)O)CSCC(=O)N[C@@H](Cc2ccc(O)cc2)C(=O)N(C)[C@@H](C)C(=O)N[C@@H](CC(N)=O)C(=O)N2CCC[C@H]2C(=O)N[C@@H](Cc2cnc[nH]2)C(=O)N[C@@H](CC(C)C)C(=O)N[C@@H](CCCN)C(=O)N[C@@H](Cc2c[nH]c3ccccc23)C(=O)N[C@@H](CO)C(=O)N[C@@H](Cc2c[nH]c3ccccc23)C(=O)N1C [Example 1154] | 6.76 to 30.3 | > 74.3 |
| CCCC[C@H]1C(=O)N(C)[C@@H](CCCC)C(=O)N[C@@H](C)C(=O)N[C@H](C(=O)NCC(N)=O)CSCC(=O)N[C@@H](Cc2ccc(O)cc2)C(=O)N(C)[C@@H](C)C(=O)N[C@@H](CC(=O)O)C(=O)N2CCC[C@H]2C(=O)N[C@@H](Cc2cnc[nH]2)C(=O)N[C@@H](CCCNC(C)=O)C(=O)N2C[C@H](O)C[C@H]2C(=O)N[C@@H](Cc2c[nH]c3ccccc23)C(=O)N[C@@H](CO)C(=O)N[C@@H](Cc2c[nH]c3ccccc23)C(=O)N1C [Example 1156] ({CH2CO}-Y[NMeA]DPH[Orn](Ac)[Hyp]WSW[NMeNle][NMeNle]ACG-NH2; thioether N-14) | 0.385 to 6.74 | 0.158 to 4.71 |

Source: patent publication US9850283B2, “Macrocyclic inhibitors of the PD-1/PD-L1 and CD80(B7-1)/PD-L1 protein/protein interactions” (BRISTOL-MYERS SQUIBB COMPANY, priority 2013, dated 2017)
